#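 The compound was tested at five concentrations on cells cultured in 96-well plates, with a 48-hour exposure period. GI50: concentration for 50% inhibition of growth.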 The source made the active and inactive calls. Rule as the data show it: active = GI50 up to about 1.1 µM and inactive = higher.
# Experiments:
# Assay in all cases: NCI tumour cell line growth inhibition, 48 h
# SF-295 = system: SF-295
# HOP-62 = system: HOP-62
# SF-268 = system: SF-268
# U-251 = system: U-251
# M14 = system: M14
# MOLT-4 = system: MOLT-4
# SK-MEL-2 = system: SK-MEL-2
# HCT-15 = system: HCT-15
# SR = system: SR
# HT-29 = system: HT-29
# Malme-3M = system: Malme-3M
# SK-OV-3 = system: SK-OV-3
# CAKI-1 = system: CAKI-1
# OVCAR-8 = system: OVCAR-8
# RPMI-8226 = system: RPMI-8226
# RXF 393 = system: RXF 393
# TK-10 = system: TK-10
SMILES,GI50 (SF-295),GI50 (HOP-62),GI50 (SF-268),GI50 (U-251),GI50 (M14),GI50 (MOLT-4),GI50 (SK-MEL-2),GI50 (HCT-15),GI50 (SR),GI50 (HT-29),GI50 (Malme-3M),GI50 (SK-OV-3),GI50 (CAKI-1),GI50 (OVCAR-8),GI50 (RPMI-8226),GI50 (RXF 393),GI50 (TK-10)
CC1(C)CC(/C=C2/OC(=O)c3ccccc32)=C(C(N)=O)C(=O)O1,> 100 µM (inactive),> 100 µM (inactive),> 100 µM (inactive),> 100 µM (inactive),> 100 µM (inactive),> 100 µM (inactive),> 100 µM (inactive),> 100 µM,> 100 µM (inactive),> 100 µM (inactive),> 100 µM (inactive),> 100 µM (inactive),> 100 µM (inactive),> 100 µM (inactive),> 100 µM (inactive),–,–
c1ccc2cc3[s+]snc3cc2c1,> 100 µM (inactive),> 100 µM (inactive),> 100 µM (inactive),85.9 µM (inactive),> 100 µM (inactive),> 100 µM (inactive),> 100 µM (inactive),> 100 µM,> 100 µM (inactive),> 100 µM (inactive),> 100 µM (inactive),> 100 µM (inactive),> 100 µM (inactive),> 100 µM (inactive),–,> 100 µM (inactive),> 100 µM (inactive)
N#CC(C(=O)CCCC(=O)Nc1ccc(Cl)cc1Cl)c1ccc(Cl)cc1 (stereo unspecified),> 100 µM (inactive),> 100 µM (inactive),> 100 µM (inactive),–,> 100 µM (inactive),> 100 µM (inactive),> 100 µM (inactive),> 100 µM,> 100 µM (inactive),> 100 µM (inactive),> 100 µM (inactive),> 100 µM (inactive),> 100 µM (inactive),> 100 µM (inactive),> 100 µM (inactive),–,> 100 µM (inactive)
CCOC(=O)N1C(c2ccccc2)C=CC(c2ccccc2)N1C(=O)OCC (stereo unspecified),> 100 µM (inactive),> 100 µM (inactive),> 100 µM (inactive),> 100 µM (inactive),–,–,> 100 µM (inactive),> 100 µM,> 100 µM (inactive),> 100 µM (inactive),> 100 µM (inactive),–,> 100 µM (inactive),> 100 µM (inactive),> 100 µM (inactive),> 100 µM (inactive),> 100 µM (inactive)
CC(C)(C)c1ccnc(/N=C2\N/C(=N\c3cc(C(C)(C)C)ccn3)c3ccccc32)c1,23.4 µM (inactive),31.6 µM (inactive),16.3 µM (inactive),26.1 µM (inactive),32.5 µM (inactive),7.14 µM (inactive),56.9 µM (inactive),24.3 µM,31.4 µM (inactive),12.4 µM (inactive),24.8 µM (inactive),26.5 µM (inactive),26.6 µM (inactive),17.9 µM (inactive),–,22.3 µM (inactive),21.4 µM (inactive)
CN1C(=O)C2C3C=C4c5ccccc5N(c5ccccc5)C4(C2C1=O)[C@H]1C(=O)N(C)C(=O)[C@@H]31 (stereo partly specified),> 100 µM (inactive),> 100 µM (inactive),> 100 µM (inactive),> 100 µM (inactive),> 100 µM (inactive),> 100 µM (inactive),> 100 µM (inactive),–,> 100 µM (inactive),> 100 µM (inactive),> 100 µM (inactive),> 100 µM (inactive),–,> 100 µM (inactive),> 100 µM (inactive),–,> 100 µM (inactive)
[N-]=[N+]=NC(CBr)c1cn([C@H]2C[C@H](O)[C@@H](CO)O2)c(=O)[nH]c1=O (stereo partly specified),> 100 µM (inactive),> 100 µM (inactive),–,> 100 µM (inactive),> 100 µM (inactive),> 100 µM (inactive),> 100 µM (inactive),> 100 µM,> 100 µM (inactive),> 100 µM (inactive),> 100 µM (inactive),> 100 µM (inactive),> 100 µM (inactive),> 100 µM (inactive),> 100 µM (inactive),> 100 µM (inactive),> 100 µM (inactive)
